This note sets out measurements from patent US10947242B2, “[1,2,4]triazolo[1,5and#8208;A]pyrimidine compounds as PDE2 inhibitors” (Janssen Pharmaceutica NV, priority 2016, dated 2021).

Like-named read-outs stand apart in the source and are kept apart here.

Experiment [1] has as its target T1, Human recombinant PDE10A (hPDE10A) (Homo sapiens, UniProt Q9Y233).
T1 construct: His tag (inferred from metal chelate purification); made in house; host or cells: Sf9 insect cells (baculovirus)
Nature of the experiment: In vitro assay PDE10A, human clone (SPA, 3H-cAMP hydrolysis). Conditions: for Emax: read-out: hPDE10A2 or rPDE10A2 Emax. It counts as biochemical. In outline: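 Human recombinant PDE10A was expressed in Sf9 cells via baculovirus and incubated with compound in 50 mM Tris pH 7.8, 8.3 mM MgCl2, 1.7 mM EGTA. Substrate was 60 nM cAMP plus 0.008 μCi 3H-cAMP for 60 min at room temperature, read by SPA scintillation counting. Controls used 1% DMSO, and blanks omitted enzyme.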

Experiment [2] concerns the target T2, Human recombinant PDE3A (hPDE3A) (Homo sapiens, UniProt Q14432).
T2 construct: purchased Scottish Biomedical; host or cells: Sf9 insect cells
As to the kind of experiment: In vitro assay PDE3A (SPA, 3H-cAMP hydrolysis).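 On Emax: the method names PDE3A and the table heading PDE3B.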 Format: biochemical. As to conditions: for IC50: hPDE3B pIC50; for Emax: read-out: hPDE3B Emax, read-out: Emax. The method in brief:
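Human PDE3A, cloned from brain, as partially purified Sf9 lysate. Substrate 0.4 μM cAMP plus [3H]-cAMP (2.4 μCi/ml final) in 50 mM Tris pH 7.8, 8.3 mM MgCl2, 1.7 mM EGTA, 60 min at room temperature, 1% DMSO final. Hydrolysis read by SPA scintillation counting against no-enzyme blanks and DMSO controls.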

In experiment [3] the target is T3, Human recombinant PDE2A (hPDE2A) (Homo sapiens, UniProt O00408).
T3 construct: His tag (inferred from metal chelate purification); made in house; host or cells: Sf9 insect cells (baculovirus)
T3 sequence (O00408 whole entry): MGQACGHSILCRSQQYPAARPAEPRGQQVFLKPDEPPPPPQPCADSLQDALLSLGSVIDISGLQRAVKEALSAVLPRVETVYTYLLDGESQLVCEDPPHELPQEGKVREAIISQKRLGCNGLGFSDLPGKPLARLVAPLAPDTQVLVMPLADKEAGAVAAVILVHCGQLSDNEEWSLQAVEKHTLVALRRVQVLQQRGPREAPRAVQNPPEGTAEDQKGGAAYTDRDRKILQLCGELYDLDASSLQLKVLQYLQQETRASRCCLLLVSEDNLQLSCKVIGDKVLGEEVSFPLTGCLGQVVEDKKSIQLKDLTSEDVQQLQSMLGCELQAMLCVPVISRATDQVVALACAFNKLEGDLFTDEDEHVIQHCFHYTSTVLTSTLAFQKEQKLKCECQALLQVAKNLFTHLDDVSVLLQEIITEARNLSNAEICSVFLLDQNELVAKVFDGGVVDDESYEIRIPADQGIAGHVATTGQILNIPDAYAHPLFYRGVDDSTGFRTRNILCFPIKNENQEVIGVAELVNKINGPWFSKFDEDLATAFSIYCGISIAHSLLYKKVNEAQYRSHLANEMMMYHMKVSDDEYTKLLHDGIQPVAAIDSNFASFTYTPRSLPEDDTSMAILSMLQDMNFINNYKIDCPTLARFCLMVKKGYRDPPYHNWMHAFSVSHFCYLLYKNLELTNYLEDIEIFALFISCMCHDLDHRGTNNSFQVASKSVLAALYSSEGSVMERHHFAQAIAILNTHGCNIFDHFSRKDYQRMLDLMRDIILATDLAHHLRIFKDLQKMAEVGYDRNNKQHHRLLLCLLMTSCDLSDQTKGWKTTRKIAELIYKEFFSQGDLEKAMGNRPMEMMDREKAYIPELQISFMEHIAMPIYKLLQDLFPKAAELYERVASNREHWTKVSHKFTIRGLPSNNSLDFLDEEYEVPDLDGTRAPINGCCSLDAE
Nature of the experiment: In vitro assay PDE2A (SPA, 3H-cGMP hydrolysis). Format: biochemical. Conditions: for Emax: read-out: hPDE2A Emax.

The next experiment has as its target T4, PDE2A (Rattus norvegicus, UniProt Q01062).
T4 construct: Twenty μm-thick striatal sections were cut; from tissue; host or cells: rat brain, striatal sections
T4 sequence (Q01062 1-928): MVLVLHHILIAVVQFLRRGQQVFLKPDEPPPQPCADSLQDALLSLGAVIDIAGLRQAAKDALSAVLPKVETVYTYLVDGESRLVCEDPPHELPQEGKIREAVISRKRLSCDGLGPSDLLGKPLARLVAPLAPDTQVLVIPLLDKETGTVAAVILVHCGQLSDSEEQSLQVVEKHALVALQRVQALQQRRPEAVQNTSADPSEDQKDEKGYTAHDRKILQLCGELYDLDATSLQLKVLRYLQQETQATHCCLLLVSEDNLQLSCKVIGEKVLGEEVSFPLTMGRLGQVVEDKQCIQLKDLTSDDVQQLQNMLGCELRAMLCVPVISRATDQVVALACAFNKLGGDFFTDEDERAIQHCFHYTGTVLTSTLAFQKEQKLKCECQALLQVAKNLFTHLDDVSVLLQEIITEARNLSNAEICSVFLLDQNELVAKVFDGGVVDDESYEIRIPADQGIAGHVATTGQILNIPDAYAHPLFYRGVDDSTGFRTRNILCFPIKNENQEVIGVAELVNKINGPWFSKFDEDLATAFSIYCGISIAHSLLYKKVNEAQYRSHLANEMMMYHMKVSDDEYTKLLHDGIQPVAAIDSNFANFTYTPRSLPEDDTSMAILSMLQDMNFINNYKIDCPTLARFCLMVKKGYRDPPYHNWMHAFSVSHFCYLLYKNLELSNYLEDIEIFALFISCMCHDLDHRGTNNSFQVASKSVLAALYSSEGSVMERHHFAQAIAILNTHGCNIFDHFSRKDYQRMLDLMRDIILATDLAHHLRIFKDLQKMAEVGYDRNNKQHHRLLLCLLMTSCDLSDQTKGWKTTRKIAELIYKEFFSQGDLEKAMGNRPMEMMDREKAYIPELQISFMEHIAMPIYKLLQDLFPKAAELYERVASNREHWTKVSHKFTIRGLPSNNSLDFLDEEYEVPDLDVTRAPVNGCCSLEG
Nature of the experiment: PDE2 occupancy by test compounds, ex-vivo autoradiography with [3H]B-17a. Conditions: for receptor occupancy at 10 mg/kg: route PO (oral), percentage receptor occupancy, ex-vivo autoradiography, striatum. It counts as in vivo, Male Wistar rats.

[4] abbreviates: human clone by default (no (r) mark).
Where [5] appears, read: human clone by default (no (r) mark), read-out: hPDE10A2 or rPDE10A2 pIC50 (converted).
The mark [6] stands for this setting: read-out: hPDE2A pIC50 (converted).

T1 sequence (Q9Y233 267-1055): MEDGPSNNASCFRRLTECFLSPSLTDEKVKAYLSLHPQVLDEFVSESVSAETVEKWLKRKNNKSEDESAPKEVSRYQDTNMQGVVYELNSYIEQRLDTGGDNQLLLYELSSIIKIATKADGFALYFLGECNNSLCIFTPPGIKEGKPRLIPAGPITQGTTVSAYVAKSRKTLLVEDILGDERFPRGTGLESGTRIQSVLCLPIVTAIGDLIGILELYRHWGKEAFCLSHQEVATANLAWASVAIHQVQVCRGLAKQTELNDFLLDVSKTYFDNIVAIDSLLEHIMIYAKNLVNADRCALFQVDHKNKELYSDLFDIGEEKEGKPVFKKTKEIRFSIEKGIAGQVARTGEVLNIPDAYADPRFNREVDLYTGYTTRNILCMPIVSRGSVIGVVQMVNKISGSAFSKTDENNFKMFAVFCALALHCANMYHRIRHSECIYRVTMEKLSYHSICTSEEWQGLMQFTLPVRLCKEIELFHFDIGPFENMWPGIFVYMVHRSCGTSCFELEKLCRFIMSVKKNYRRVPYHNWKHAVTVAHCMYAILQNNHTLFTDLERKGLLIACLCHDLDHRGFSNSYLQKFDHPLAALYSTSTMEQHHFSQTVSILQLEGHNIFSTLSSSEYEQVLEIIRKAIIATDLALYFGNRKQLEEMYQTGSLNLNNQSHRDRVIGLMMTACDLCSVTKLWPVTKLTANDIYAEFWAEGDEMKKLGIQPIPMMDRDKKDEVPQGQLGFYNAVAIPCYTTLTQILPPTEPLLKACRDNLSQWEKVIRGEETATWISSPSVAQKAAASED
T2 sequence (Q14432 whole entry): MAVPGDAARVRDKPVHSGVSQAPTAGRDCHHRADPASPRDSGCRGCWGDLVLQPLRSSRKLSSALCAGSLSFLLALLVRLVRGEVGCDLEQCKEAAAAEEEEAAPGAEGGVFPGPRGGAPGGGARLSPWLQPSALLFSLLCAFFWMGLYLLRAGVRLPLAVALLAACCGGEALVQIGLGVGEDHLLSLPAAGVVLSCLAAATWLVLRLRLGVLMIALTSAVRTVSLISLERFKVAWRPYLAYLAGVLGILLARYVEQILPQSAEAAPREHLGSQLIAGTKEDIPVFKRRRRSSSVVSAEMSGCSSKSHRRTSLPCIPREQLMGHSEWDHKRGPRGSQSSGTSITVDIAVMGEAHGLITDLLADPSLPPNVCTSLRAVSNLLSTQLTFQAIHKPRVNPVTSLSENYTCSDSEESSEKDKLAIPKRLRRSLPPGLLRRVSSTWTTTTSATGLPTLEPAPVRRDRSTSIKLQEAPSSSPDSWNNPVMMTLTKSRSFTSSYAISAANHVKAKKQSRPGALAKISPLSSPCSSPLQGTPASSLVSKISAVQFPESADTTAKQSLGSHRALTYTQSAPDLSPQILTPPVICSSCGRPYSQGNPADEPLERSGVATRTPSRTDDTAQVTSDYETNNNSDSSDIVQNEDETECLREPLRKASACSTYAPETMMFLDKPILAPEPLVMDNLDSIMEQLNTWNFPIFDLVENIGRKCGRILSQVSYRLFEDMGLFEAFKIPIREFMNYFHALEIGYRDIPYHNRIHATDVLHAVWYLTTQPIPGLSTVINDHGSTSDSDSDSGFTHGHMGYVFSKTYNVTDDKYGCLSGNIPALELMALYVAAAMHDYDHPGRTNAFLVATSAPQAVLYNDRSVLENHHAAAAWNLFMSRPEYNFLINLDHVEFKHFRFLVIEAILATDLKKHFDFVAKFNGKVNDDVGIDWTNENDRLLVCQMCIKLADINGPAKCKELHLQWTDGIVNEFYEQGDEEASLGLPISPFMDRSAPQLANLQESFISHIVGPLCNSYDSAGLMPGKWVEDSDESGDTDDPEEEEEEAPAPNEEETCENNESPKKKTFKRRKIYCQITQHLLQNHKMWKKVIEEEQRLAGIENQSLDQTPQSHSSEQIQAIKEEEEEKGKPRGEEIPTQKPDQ

As usually defined, the Emax is the maximal effect, on the per cent scale that the assay sets. With `O=C(c1ccc2cnccc2c1)N1[C@H]2CC[C@H](c3cc(C(F)F)nc4ncnn34)[C@@H]1CC2` [Compound 314], the results for the Emax in experiment [1] (setting [4]), in experiment [2] and in experiment [3] were 91%, 73% and 100%, respectively. The IC50 is 933 nM in experiment [1] (setting [5]), 3.55 µM in experiment [2] (read-out: pIC50 (converted)) and 5.75 nM in experiment [3] (setting [6]). Besides, the receptor occupancy at 10 mg/kg at PDE2A came out at 5%.
In the case of `O=C(c1ccc2ccccc2c1)N1[C@H]2CC[C@H](c3cc(C(F)F)nc4ncnn34)[C@@H]1CC2` [Compound 319], the Emax was determined as 99% in experiment [1] (setting [4]), 95% in experiment [2] and 100% in experiment [3]. Also, the IC50 was 263 nM in experiment [1] (setting [5]), 1.02 µM in experiment [2] (read-out: pIC50 (converted)) and 1.12 nM in experiment [3] (setting [6]). Moreover, the receptor occupancy at 10 mg/kg on PDE2A came to 37%.
By ED50 is commonly meant the dose at which the effect has come halfway, by size or by number of responders. For the compound `Cc1nn(C)c2sc(C(=O)N3[C@H]4CC[C@H](c5cc(C(F)F)nc6ncnn56)[C@@H]3CC4)cc12` [Compound 335], the results for the Emax in experiment [1] (setting [4]), in experiment [2] and in experiment [3] were 98%, 52% and 102%, respectively. Moreover, the IC50 in experiment [1] (setting [5]) was 87.1 nM; in experiment [2] (read-out: pIC50 (converted)), 7.24 µM; in experiment [3] (setting [6]), 0.955 nM. Further, the receptor occupancy at 10 mg/kg on PDE2A came out at 88%. The ED50 on PDE2A (po, read-out: PDE Occupancy ED50) is 0.985 mg/kg.
As to `Cc1cc(Cl)cc(C(=O)N2[C@H]3CC[C@H](c4cc(C(F)F)nc5ncnn45)[C@@H]2CC3)c1` [Compound 339], the Emax in experiment [1] (setting [4]) amounted to 95%; in experiment [2], 69%; in experiment [3] it was 101%. The IC50 is 617 nM in experiment [1] (setting [5]), 4.79 µM in experiment [2] (read-out: pIC50 (converted)) and 6.61 nM in experiment [3] (setting [6]). For the same compound, the receptor occupancy at 10 mg/kg on PDE2A is -1%.
Take `Cc1cc(C(=O)N2[C@H]3CC[C@H](c4cc(C(F)F)nc5ncnn45)[C@@H]2CC3)cc(C)c1F` [Compound 346]: the Emax in experiment [1] (setting [4]) was found to be 92%; in experiment [2], 68%; in experiment [3], 100%. Moreover, the IC50 in experiment [1] (setting [5]) was 724 nM; in experiment [2] (read-out: pIC50 (converted)) it was 6.03 µM; in experiment [3] (setting [6]), 5.25 nM. Also, the receptor occupancy at 10 mg/kg at PDE2A is 19%.
Turning to `Cc1csc(C(=O)N2[C@H]3CC[C@H](c4cc(C(F)F)nc5ncnn45)[C@@H]2CC3)c1` [Compound 347], the IC50 is 1000 nM in experiment [1] (hPDE10A2 or rPDE10A2 pIC50, human clone by default (no (r) mark)); 7.24 µM in experiment [2]; 5.37 nM in experiment [3] (hPDE2A pIC50). For the same compound, the Emax in experiment [1] (setting [4]) worked out at 91%; in experiment [2], 63%; in experiment [3], 101%. Further, on PDE2A, the receptor occupancy at 10 mg/kg worked out at 11%.
`O=C(c1cc(OC(F)F)cc(C2CC2)c1)N1[C@H]2CC[C@H](c3cc(C(F)F)nc4ncnn34)[C@@H]1CC2` [Compound 352]: the Emax in experiment [1] (setting [4]) was 99%; in experiment [2] it was 89%; in experiment [3], 100%. Further, the results for the IC50 in experiment [1] (setting [5]), in experiment [2] (read-out: pIC50 (converted)) and in experiment [3] (setting [6]) were 479 nM, 1.82 µM and 7.59 nM, respectively. Besides, on PDE2A, the receptor occupancy at 10 mg/kg was determined as 16%.
As for `CN(C)c1ccc(C(=O)N2[C@H]3CC[C@H](c4cc(C(F)F)nc5ncnn45)[C@@H]2CC3)cc1` [Compound 362], the Emax was 93% in experiment [1] (setting [4]), 88% in experiment [2] and 99% in experiment [3]. In addition, the IC50 was 794 nM in experiment [1] (setting [5]), 0.871 µM in experiment [2] (read-out: pIC50 (converted)) and 1.7 nM in experiment [3] (setting [6]). Besides, the receptor occupancy at 10 mg/kg at PDE2A stood at 3%.
With `COc1ccc(C(=O)N2[C@H]3CC[C@H](c4cc(C(F)F)nc5ncnn45)[C@@H]2CC3)cc1OC` [Compound 364], the results for the Emax in experiment [1] (setting [4]), in experiment [2] and in experiment [3] were 85%, 75% and 101%, respectively. Besides, the IC50 is 1820 nM in experiment [1] (setting [5]), 3.16 µM in experiment [2] (read-out: pIC50 (converted)) and 3.89 nM in experiment [3] (setting [6]). For the same compound, on PDE2A, the receptor occupancy at 10 mg/kg was -5%.
`Cc1cc(C(=O)N2[C@H]3CC[C@H](c4cc(C(F)F)nc5ncnn45)[C@@H]2CC3)cnc1C` [Compound 366]: the Emax in experiment [1] (setting [4]) was 64%; in experiment [2] it was 22%; in experiment [3], 99%. Moreover, the IC50 is 5750 nM in experiment [1] (setting [5]), more than 10 µM in experiment [2] (read-out: pIC50 (converted)) and 10.2 nM in experiment [3] (setting [6]). Also, the receptor occupancy at 10 mg/kg at PDE2A was determined as 18%.
